Test results published in patent publication US20240417437A1, “Linker Polypeptides” (Trutino Biosciences Inc., priority 2021, published 2024).
pKd: −log10 of the molar value. Where no end group is shown, it is not given here. The star is where a group is joined. EDANS = O=S(=O)(O)c1cccc2c(NCCN*)cccc12

Tests used:
[1] = target: Collagen type I (Homo sapiens, UniProt P02452+P08123); conditions: binds to Collagen type I; Note 1 of Table 2; cited from earlier work
[2] = test system: Heparan sulfate proteoglycans; conditions: DTx protein derived sequences; cited from earlier work
[3] = pH-sensitive targeting sequences; cited from earlier work
[4] = target: fibronectin (Homo sapiens, UniProt P02751); conditions: derived from thrombospondin, cited from earlier work; for Note 1: affinity (binds to Fibronectin): pH-sensitive targeting sequences
[5] = test system: MC38 colorectal cancer cells; assay: MC38 colorectal cancer tumor growth inhibition study; assay type: in vivo, C57BL/6 mice; conditions: low dose (1 mg/kg IP BIW)
Protocol: C57BL/6 mice were subcutaneously inoculated with MC38 colorectal cancer cells. When the average tumor volume reached 70-90 mm^3, animals were randomized into 10 groups based on tumor volumes (n 7 or 6 mice per treatment group).
Tumor volumes were measured twice a week for the duration of the study.

[6] = assay type: binding; conditions: compared with IL-15Rα-IL-15 fusion protein
Protocol: 96-well plates were coated with 10 μg/mL of Heparin-BSA conjugate (provided by Dr. Mueller, Boerhinger Ingelheim) or control BSA for 18-22 hours at room temperature on shaker (350 rpm). After washing, wells are blocked with 2% milk powder in PBS-0.05% Tween 20 or PBS-0.05% Tween 20/1% BSA for 90 minutes. The fusion proteins were then titrated in either 2% milk powder in PBS-0.05% Tween 20 or 1% BSA/PBS-0.05% Tween 20, pH 7.5 and/or pH 6, and added for 2 hours at room temperature with shaking. After washing, an anti-mouse IL-2 biotin-labelled detection antibody (JES6-5H4, ThermoFisher), anti-6×-His Tag HRP conjugate antibody (Invitrogen, 1 mg/mL, cat #MA1-21315-HRP), or anti-human IgG HRP conjugate antibody (SouthernBiotech) was added, and binding was detected using Ultra Streptavidin HRP (ThermoFisher). The plate was developed by adding the chromogenic tetramethylbenzidine substrate (Ultra TMB, ThermoFisher). The reaction was stopped by addition of 0.5 M H2SO4, and the absorbance was read at 450-650 nm. […] Moreover, when the same pH-dependent heparin binding motif was inserted into different locations of IL-2 fusion proteins, all resulting proteins bound heparin at pH 6 with similar high affinities (FIGS. 4F and 4G). Likewise, similar binding affinities were observed when another heparin targeting sequence was engineered into different sites of IL-2 fusion proteins (FIGS. 4H-4I). […]

[7] = test system: fibronectin; assay: EDANS linker peptide binding to fibronectin-coated magnetic beads; conditions: peptides 20 μM
Protocol: (§1) A series of peptides comprising an MMP cleavable site with or without the addition of a targeting sequence were synthesized and conjugated to the fluorophore EDANS (5-((2-Aminoethyl)amino)naphthalene-1-sulfonic acid) (custom synthesis, ThermoFisher). […] These peptides were then tested for their ability to bind ECM proteins such as heparin, fibronectin and collagen which are found in abundance in tumor stroma.
(§2) For fibronectin and collagen binding peptide assays, streptavidin coupled magnetic beads (Mag Sepharose, Cytiva and Dynabeads, ThermoFisher, respectively) were first incubated with biotin-labelled fibronectin (Cytoskeleton) or biotin-labelled collagen IV (Prospec) for 1 hour with gentle shaking. Following multiple washes, the ECM-coated beads were then incubated with Edans Peptides (20 μM) for 2 hours at room temperature with shaking in neutral or acidic binding buffer. Beads were then washed and resuspended in 100 μL of binding buffer in a black 96-well plate. Peptide binding was quantified by measuring the fluorescence of samples using excitation/emission spectra of EDANS (Ex 340/Em 490).

[8] = target: T1, collagen IV (Homo sapiens, UniProt P02462+P08572); assay: EDANS linker peptide binding to collagen IV-coated magnetic beads; conditions: peptides 20 μM, 2 hours
T1 construct: purchased Prospec
Protocol: as §1, §2

Chain of fibronectin (Homo sapiens, UniProt P02751) (P02751 32-2477, species assumed): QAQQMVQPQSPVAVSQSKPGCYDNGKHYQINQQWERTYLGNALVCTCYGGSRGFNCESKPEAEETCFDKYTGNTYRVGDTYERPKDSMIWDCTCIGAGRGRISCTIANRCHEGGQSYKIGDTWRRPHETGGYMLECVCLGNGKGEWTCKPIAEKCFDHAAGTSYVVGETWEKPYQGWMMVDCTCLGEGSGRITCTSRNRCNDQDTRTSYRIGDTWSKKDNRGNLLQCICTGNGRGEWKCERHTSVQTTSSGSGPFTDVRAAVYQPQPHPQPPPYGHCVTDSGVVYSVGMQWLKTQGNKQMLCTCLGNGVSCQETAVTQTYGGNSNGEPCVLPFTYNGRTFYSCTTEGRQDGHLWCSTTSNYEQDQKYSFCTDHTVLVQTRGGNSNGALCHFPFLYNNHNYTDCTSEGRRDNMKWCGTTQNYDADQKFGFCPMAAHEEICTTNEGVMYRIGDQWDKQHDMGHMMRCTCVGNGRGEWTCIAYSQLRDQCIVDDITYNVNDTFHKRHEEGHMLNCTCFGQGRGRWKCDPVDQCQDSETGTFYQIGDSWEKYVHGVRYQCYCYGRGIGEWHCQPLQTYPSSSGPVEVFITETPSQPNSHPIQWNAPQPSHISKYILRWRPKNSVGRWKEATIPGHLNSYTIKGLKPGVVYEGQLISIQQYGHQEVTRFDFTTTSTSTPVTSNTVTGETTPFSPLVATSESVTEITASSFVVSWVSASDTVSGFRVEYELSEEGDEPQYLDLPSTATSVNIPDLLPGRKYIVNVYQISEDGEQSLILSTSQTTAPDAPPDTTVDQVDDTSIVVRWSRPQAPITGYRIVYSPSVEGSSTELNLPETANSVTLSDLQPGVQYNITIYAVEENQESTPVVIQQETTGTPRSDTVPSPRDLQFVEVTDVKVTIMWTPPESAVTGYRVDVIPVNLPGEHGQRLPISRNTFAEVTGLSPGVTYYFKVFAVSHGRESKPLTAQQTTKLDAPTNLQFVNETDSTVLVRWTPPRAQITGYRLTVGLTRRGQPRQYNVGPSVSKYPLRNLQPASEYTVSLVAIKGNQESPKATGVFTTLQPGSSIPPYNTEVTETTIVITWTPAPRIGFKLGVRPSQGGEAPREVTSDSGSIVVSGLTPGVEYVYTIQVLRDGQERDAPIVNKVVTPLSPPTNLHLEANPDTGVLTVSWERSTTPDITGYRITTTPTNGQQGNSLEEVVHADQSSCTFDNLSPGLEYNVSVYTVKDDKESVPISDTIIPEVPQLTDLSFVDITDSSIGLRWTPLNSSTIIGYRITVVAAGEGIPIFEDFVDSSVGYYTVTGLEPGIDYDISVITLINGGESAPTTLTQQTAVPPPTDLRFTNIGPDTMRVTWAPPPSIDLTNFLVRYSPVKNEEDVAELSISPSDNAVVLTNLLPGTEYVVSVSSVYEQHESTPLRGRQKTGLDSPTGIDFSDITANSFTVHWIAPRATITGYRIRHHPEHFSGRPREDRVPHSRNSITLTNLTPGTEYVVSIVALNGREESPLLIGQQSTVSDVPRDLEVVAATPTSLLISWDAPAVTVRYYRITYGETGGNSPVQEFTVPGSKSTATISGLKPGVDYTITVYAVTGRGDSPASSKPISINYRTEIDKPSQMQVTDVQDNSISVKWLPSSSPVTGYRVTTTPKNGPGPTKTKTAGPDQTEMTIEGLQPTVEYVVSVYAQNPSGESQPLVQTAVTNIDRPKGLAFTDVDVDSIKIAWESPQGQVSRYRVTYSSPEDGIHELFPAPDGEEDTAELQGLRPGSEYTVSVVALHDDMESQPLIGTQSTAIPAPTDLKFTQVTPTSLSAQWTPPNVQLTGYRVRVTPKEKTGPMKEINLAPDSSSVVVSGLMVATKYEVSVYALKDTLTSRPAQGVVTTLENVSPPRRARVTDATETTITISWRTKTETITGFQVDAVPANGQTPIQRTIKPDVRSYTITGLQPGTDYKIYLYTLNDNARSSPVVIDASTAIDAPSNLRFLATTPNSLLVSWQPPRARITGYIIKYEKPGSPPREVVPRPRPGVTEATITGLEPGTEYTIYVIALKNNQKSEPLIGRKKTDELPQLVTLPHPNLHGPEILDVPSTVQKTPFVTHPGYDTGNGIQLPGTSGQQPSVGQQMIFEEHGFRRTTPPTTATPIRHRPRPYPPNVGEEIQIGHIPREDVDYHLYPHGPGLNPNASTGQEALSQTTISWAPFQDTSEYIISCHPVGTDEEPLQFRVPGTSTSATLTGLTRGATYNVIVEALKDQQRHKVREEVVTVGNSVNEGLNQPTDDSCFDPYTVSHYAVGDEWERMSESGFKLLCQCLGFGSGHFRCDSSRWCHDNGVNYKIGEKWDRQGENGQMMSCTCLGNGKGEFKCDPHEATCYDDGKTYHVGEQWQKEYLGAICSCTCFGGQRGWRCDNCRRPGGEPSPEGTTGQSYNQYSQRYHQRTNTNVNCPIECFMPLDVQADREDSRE
Chain of Collagen type I (P02452 162-1218 limits assumed): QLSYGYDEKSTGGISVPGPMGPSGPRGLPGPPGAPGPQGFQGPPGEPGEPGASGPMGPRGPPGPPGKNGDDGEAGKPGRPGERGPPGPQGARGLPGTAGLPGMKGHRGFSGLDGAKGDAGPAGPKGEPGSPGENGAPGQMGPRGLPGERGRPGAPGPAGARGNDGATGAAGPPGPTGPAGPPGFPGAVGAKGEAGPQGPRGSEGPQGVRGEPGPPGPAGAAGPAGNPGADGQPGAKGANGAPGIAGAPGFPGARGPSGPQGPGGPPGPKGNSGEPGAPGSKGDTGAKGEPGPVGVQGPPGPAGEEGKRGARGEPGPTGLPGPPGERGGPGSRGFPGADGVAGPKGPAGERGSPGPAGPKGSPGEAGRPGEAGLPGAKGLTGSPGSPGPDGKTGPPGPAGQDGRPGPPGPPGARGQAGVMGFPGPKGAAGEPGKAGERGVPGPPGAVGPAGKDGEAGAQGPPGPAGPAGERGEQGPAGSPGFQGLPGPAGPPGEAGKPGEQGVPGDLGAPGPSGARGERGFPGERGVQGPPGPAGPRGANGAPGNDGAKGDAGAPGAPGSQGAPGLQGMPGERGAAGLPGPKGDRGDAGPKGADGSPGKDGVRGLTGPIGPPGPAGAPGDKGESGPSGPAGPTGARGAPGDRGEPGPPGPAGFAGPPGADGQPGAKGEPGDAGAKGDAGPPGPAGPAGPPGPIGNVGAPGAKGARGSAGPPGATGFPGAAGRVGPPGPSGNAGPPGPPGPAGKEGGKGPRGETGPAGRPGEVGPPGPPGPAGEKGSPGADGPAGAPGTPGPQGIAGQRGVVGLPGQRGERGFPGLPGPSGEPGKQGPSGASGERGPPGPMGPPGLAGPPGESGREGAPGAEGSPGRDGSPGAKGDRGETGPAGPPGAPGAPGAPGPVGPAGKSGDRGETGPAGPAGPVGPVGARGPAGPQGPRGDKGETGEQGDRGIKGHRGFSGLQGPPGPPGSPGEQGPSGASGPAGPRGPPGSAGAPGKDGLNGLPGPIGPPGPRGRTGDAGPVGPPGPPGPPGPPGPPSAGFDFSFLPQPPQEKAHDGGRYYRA
Chain of Collagen type I (P08123 80-1119 limits assumed): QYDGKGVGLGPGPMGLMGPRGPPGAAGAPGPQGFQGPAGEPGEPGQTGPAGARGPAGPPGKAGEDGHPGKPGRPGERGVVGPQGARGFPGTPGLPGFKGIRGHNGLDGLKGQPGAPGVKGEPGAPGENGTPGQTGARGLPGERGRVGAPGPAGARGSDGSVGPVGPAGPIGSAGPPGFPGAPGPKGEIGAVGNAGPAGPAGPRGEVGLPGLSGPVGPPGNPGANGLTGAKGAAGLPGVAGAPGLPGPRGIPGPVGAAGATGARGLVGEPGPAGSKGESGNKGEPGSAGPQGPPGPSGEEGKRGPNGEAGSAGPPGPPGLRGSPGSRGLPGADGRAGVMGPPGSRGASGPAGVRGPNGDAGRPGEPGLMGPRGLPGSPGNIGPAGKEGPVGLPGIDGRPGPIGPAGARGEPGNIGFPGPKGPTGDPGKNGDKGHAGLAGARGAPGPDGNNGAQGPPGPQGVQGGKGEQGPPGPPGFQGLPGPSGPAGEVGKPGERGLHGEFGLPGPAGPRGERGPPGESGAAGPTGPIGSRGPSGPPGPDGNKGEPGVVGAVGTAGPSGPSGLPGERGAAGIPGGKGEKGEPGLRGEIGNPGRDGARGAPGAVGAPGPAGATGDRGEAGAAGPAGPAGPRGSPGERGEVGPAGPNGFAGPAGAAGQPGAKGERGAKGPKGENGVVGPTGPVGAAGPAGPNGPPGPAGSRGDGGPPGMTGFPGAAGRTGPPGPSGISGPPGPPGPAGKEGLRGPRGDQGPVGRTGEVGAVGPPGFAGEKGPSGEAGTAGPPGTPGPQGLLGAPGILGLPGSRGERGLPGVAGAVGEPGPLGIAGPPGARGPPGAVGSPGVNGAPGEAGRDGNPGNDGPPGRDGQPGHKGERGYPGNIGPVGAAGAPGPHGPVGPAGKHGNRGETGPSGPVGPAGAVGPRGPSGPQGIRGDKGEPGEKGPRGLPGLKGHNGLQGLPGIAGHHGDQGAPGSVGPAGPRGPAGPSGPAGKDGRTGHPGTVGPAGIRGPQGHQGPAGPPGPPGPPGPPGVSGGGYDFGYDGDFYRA

In the case of “189 (RRANAALKAGELYKSILYGC; Synthetic: Collagen type I) [Construct 189]”, the pKd [1] is given as 6.07.

For “190 (RRANAALKAGELYKCILYGC; Synthetic: Collagen type I) [Construct 190]”, the pKd [1] is listed as 8.00.

For “191 (MIVIELGTNPLKSSGIENGAFQGMKK; Synthetic: Collagen type I) [Construct 191]”, the pKd [1] is given as 6.40.

In the case of “192 (LRELHLNNN; Synthetic: Collagen type I) [Construct 192]”, the pKd [1] is listed as 6.77.

In the case of “194 (TKKTLRT; Synthetic: Collagen type I) [Construct 194]”, the pKd [1] is given as at least 4.00.

In the case of “195 (CPKESCNLFVLKD; Synthetic: Collagen type I) [Construct 195]”, the pKd [1] is given as 6.17.

In the case of “197 (HVWMQAPGGGK; Synthetic: Collagen type I, H-v-F/W-Q/ M-Q-P/A-P/K motif) [Construct 197]”, the pKd [1] is given as 4.21.

In the case of “639 (NGRKIRMRCRAIDGD; Synthetic: Heparan sulfate proteoglycans ; binds to HSGP with high affinity (DTx protein)) [Construct 639]”, the “Note 1: binds to HSGP, affinity” value [2] is given as “binds to HSGP with high affinity (DTx protein)”.

In the case of “640 (DVIRDKTKTKIESLK; Synthetic: Heparan sulfate proteoglycans ; binds to HSGP with low affinity (DTx protein)) [Construct 640]”, the “Note 1: binds to HSGP, affinity” value [2] is listed as “binds to HSGP with low affinity (DTx protein)”.

For “642 (KHAHLKKQVSDHIAVY; Synthetic: Heparin; binds to heparin at low pH (high affinity)) [Construct 642]”, the “Note 1: binds to heparin at low pH (affinity)” value (“Note 1: binds to heparin” below) [3] is given as “binds to heparin at low pH (high affinity)”.

For “643 (TTEPSEEHNHHK; Synthetic: Heparin; binds to heparin at low pH (low affinity)) [Construct 643]”, the “Note 1: binds to heparin” value [3] is given as “binds to heparin at low pH (low affinity)”.

In the case of “644 (KHAHL; Synthetic: Heparin; binds to heparin at low pH (lower affinity)) [Construct 644]”, the “Note 1: binds to heparin” value [3] is given as “binds to heparin at low pH (lower affinity)”.

In the case of “645 (TTEPSEEHNHHK; Synthetic: Heparin; binds to heparin at low pH (lower affinity)) [Construct 645]”, the “Note 1: binds to heparin” value [3] is listed as “binds to heparin at low pH (lower affinity)”.

In the case of “646 (TTEPSEEHNHHKHHDK; Synthetic: Heparin; binds to heparin at low pH (lower affinity)) [Construct 646]”, the “Note 1: binds to heparin” value [3] is given as “binds to heparin at low pH (lower affinity)”.

For “647 (HKGQHR; Synthetic: Heparin; binds to heparin at low pH (lower affinity)) [Construct 647]”, the “Note 1: binds to heparin” value [3] is listed as “binds to heparin at low pH (lower affinity)”.

In the case of “648 (KVEHRVKKRPPTWRHNVRAKYT; Synthetic: Heparin; binds to heparin at low pH) [Construct 648]”, the “Note 1: binds to heparin” value [3] is listed as “binds to heparin at low pH”.

For “649 (GGKVEHRVKKRPPTWRHNVRAKYT; Synthetic: Heparin; binds to heparin at low pH) [Construct 649]”, the “Note 1: binds to heparin” value [3] is given as “binds to heparin at low pH”.

In the case of “650 (KKRPPTWRHNV; Synthetic: Heparin; binds to heparin at low pH) [Construct 650]”, the “Note 1: binds to heparin” value [3] is given as “binds to heparin at low pH”.

In the case of “653 (GGWSHW; Synthetic: Fibronectin; derived from thrombospondin (highest affinity)) [Construct 653]”, the “Note 2: pH dependence of binding to Fibronectin” value [4] is listed as “binds better at lower pH” and the “Note 1: affinity (binds to Fibronectin)” value [4] is listed as “(highest affinity)”.

In the case of “655 (KRFKQDGGWSHWSP; Synthetic: Fibronectin; derived from thrombospondin (medium affinity)) [Construct 655]”, the “Note 1: affinity (binds to Fibronectin)” value [4] is given as “derived from thrombospondin (medium affinity)”.

In the case of “656 (GGWSHWSPWSS; Synthetic: Fibronectin; derived from thrombospondin (medium affinity)) [Construct 656]”, the “Note 1: affinity (binds to Fibronectin)” value [4] is given as “derived from thrombospondin (medium affinity)”.

For “Construct NNN: huIL2(C125S)-SGGKLWVLPK-MMPcs1-2x(G4S)-huIL2Ra(1-219;M25I)-GSGGGG-huIgG1(LALA); col IV”, the “efficacy (TGI) in low dose treatment groups” value [5] was “superior efficacy over parental non-targeting constructs”.

With “Construct VVV: huIL15Ra(1-77)-linker-huIL15-(SG3)-GPLGVRG-4x(G4S)-IL2Rb(1-214)-6xHis; no TME” the “heparin binding of IL-15 linker polypeptide fusion proteins” value [6] was “lost”.

With “Construct WWW: huIL15Ra(1-77)-linker-huIL15-(SG3)-GPLGVRG-gsVRIQRKKEKMKET-3x(G4S)-IL2Rb(1-214)-6xHis” the “heparin binding of IL-15 linker polypeptide fusion proteins” value [6] was “recovered”.

With “peptide 13: EDANS-conjugated GGGWSHWGPLGVRG-* (SEQ ID NO: 671); pH dependent fibronectin (GGGWSHWGPLGVRG-{EDANS})” the “peptide binding to fibronectin at pH 6 vs. pH 7.5” value [7] was “enhanced binding at pH 6” and the “peptide binding to fibronectin (EDANS fluorescence)” value ([7]; 2 hours) was “able to bind fibronectin”.

With “peptide 14: EDANS-conjugated KLWVLPKGPLGVRG-* (SEQ ID NO: 672); Collagen IV (KLWVLPKGPLGVRG-{EDANS})” the “peptide binding to collagen IV (EDANS fluorescence)” value [8] was “strongly bound”.

For “peptide 15: EDANS-conjugated GGGSGLHERHLNNN-* (SEQ ID NO: 673); Collagen I (GGGSGLHERHLNNN-{EDANS})”, the “peptide binding to collagen IV (EDANS fluorescence)” value [8] was “bound to a lesser extent”.
